Key:
blackgrass = assay: Test B pre/postemergence blackgrass; assay type: in vivo, Alopecurus myosuroides
Outline: (§1)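 Herbicidal effect was estimated by eye on a ten-point control scale after plants spent twelve to sixteen days in a greenhouse following soil or foliar treatment. Foliar sprays targeted plants at one to four leaves; all doses were formulated in a non-phytotoxic solvent with surfactant.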

surinam grass = assay: Test B pre/postemergence surinam grass; assay type: in vivo, Brachiaria decumbens
Outline: as §1

cocklebur = assay: Test B pre/postemergence cocklebur; assay type: in vivo, Xanthium strumarium
Outline: as §1

corn = assay: Test B pre/postemergence corn; assay type: in vivo, Zea mays
Outline: as §1

crabgrass = assay: Test B pre/postemergence crabgrass; assay type: in vivo, Digitaria sanguinalis
Outline: as §1

giant foxtail = assay: Test B pre/postemergence giant foxtail; assay type: in vivo, Setaria faberii
Outline: as §1

pigweed = assay: Test B pre/postemergence pigweed; assay type: in vivo, Amaranthus retroflexus; settings: for Plant response rating, Redroot pigweed: scale of 0 to 10 where 0 is no effect and 10 is complete control
Outline: as §1

rape = assay: Test B pre/postemergence rape; assay type: in vivo, Brassica napus; settings: for Plant response rating, Rape: scale of 0 to 10 where 0 is no effect and 10 is complete control
Outline: as §1

soybean = assay: Test B pre/postemergence soybean; assay type: in vivo, Glycine max; settings: for Plant response rating, Soybean: scale of 0 to 10 where 0 is no effect and 10 is complete control
Outline: as §1

sugar beet = assay: Test B pre/postemergence sugar beet; assay type: in vivo, Beta vulgaris; settings: for Plant response rating, Sugarbeets: scale of 0 to 10 where 0 is no effect and 10 is complete control
Outline: as §1

velvetleaf = assay: Test B pre/postemergence velvetleaf; assay type: in vivo, Abutilon theophrasti; settings: for Plant response rating, Velvetleaf: scale of 0 to 10 where 0 is no effect and 10 is complete control
Outline: as §1

wheat = assay: Test B pre/postemergence wheat; assay type: in vivo, Triticum aestivum; settings: for Plant response rating, Wheat: scale of 0 to 10 where 0 is no effect and 10 is complete control
Outline: as §1

wild oat = assay: Test B pre/postemergence wild oat; assay type: in vivo, Avena fatua; settings: for Plant response rating, Wild oats: scale of 0 to 10 where 0 is no effect and 10 is complete control
Outline: as §1

rice = assay: Test B flood test rice; assay type: in vivo, Oryza sativa
Outline: (§2)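 Plants were grown to the 2-leaf stage before treatment with test chemical, then held in a greenhouse for twelve to sixteen days. Injury was visually rated against untreated controls on a 0–10 scale, where 0 is no effect and 10 is complete control.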

smallflower flatsedge = assay: Test B flood test smallflower flatsedge; assay type: in vivo, Cyperus difformis
Outline: as §2

duck salad = assay: Test B flood test duck salad; assay type: in vivo, Heteranthera limosa
Outline: as §2

[1] = Postemergence, Rate 250 g/ha, scale 0 to 10
[2] = Postemergence, Rate 500 g/ha, scale of 0 to 10 where 0 is no effect and 10 is complete control
[3] = Preemergence, Rate 62 g/ha, scale of 0 to 10 where 0 is no effect and 10 is complete control
[4] = Preemergence, Rate 125 g/ha, scale of 0 to 10 where 0 is no effect and 10 is complete control
[5] = Preemergence, Rate 250 g/ha, scale 0 to 10, 0 is no effect, 10 is complete control
[6] = Preemergence, Rate 500 g/ha, scale 0 to 10, 0 is no effect, 10 is complete control
[7] = Rate 62 g/ha, Postemergence, scale 0 to 10 (0 no effect, 10 complete control)
[8] = Rate 125 g/ha, Postemergence, scale 0 to 10, 0 is no effect, 10 is complete control
[9] = Rate 62 g/ha, flood test species, Pre-emergence, visual evaluation after twelve to sixteen days
[10] = Rate 125 g/ha, under heading Pre-emergence, flood test species, visual evaluation after twelve to sixteen days
[11] = Rate 250 g/ha, Pre-emergence (flood test species), scale 0 to 10, 0 is no effect, 10 is complete control
[12] = Rate 500 g/ha, Pre-emergence, flood test species, scale 0 to 10 (0 no effect, 10 complete control)

In the case of `C=CC(CC)n1c(=O)on(C(=O)N(c2ccccc2)C(C)C)c1=O` (stereo not drawn) [Compound 455], the “Blackgrass plant response rating” value (blackgrass; [1]) is reported as 9, the “Blackgrass plant response rating” value (blackgrass; [2]) is reported as 9 and the “Plant response rating, Blackgrass” value (blackgrass; [3]) is reported as 3. The “Plant response rating, Blackgrass” value (blackgrass; [4]) was 4, the “Blackgrass plant response rating” value (blackgrass; [5]) was 6 and the “Blackgrass plant response rating” value (blackgrass; [6]) was 7. The “Blackgrass plant response rating” value (blackgrass; [7]) was 6, the “Blackgrass plant response rating” value (blackgrass; [8]) was 8 and the “B. signalgrass plant response rating” value (surinam grass; Postemergence, Rate 250 g/ha, scale 0 to 10, 0 no effect, 10 complete control) was 1. The “B. signalgrass plant response rating” value (surinam grass; [2]) was 5, the “Plant response rating, B. signalgrass” value (surinam grass; [3]) was 0 and the “Plant response rating, B. signalgrass” value (surinam grass; [4]) was 3. The “B. signalgrass plant response rating” value (surinam grass; [5]) was 9, the “B. signalgrass plant response rating” value (surinam grass; [6]) was 9 and the “B. signalgrass plant response rating” value (surinam grass; [7]) was 0. The “B. signalgrass plant response rating” value (surinam grass; [8]) was 0, the “Cocklebur plant response rating” value (cocklebur; [1]) was 0 and the “Cocklebur plant response rating” value (cocklebur; [2]) was 0. For the same compound, the “Plant response rating, Cocklebur” value (cocklebur; [3]) was 0, the “Plant response rating, Cocklebur” value (cocklebur; [4]) was 0 and the “Cocklebur plant response rating” value (cocklebur; [5]) was 0. The “Cocklebur plant response rating” value (cocklebur; [6]) was 0, the “Cocklebur plant response rating” value (cocklebur; [7]) was 0 and the “Cocklebur plant response rating” value (cocklebur; [8]) was 0. For the same compound, the “Corn plant response rating” value (corn; [1]) was 0, the “Corn plant response rating” value (corn; [2]) was 0 and the “Plant response rating, Corn” value (corn; [3]) was 0. The “Plant response rating, Corn” value (corn; [4]) was 2, the “Corn plant response rating” value (corn; [5]) was 4 and the “Corn plant response rating” value (corn; [6]) was 7. The “Corn plant response rating” value (corn; [7]) was 0, the “Corn plant response rating” value (corn; [8]) was 0 and the “Crabgrass plant response rating” value (crabgrass; [1]) was 4. For the same compound, the “Crabgrass plant response rating” value (crabgrass; [2]) was 9, the “Plant response rating, Crabgrass” value (crabgrass; [3]) was 5 and the “Plant response rating, Crabgrass” value (crabgrass; [4]) was 5. The “Crabgrass plant response rating” value (crabgrass; [5]) was 10, the “Crabgrass plant response rating” value (crabgrass; [6]) was 10 and the “Crabgrass plant response rating” value (crabgrass; [7]) was 4. For the same compound, the “Giant foxtail plant response rating” value (giant foxtail; [1]) was 7, the “Giant foxtail plant response rating” value (giant foxtail; [2]) was 9 and the “Plant response rating, Giant foxtail” value (giant foxtail; [3]) was 10. For the same compound, the “Plant response rating, Giant foxtail” value (giant foxtail; [4]) was 10, the “Giant foxtail plant response rating” value (giant foxtail; [5]) was 10 and the “Giant foxtail plant response rating” value (giant foxtail; [6]) was 10. For the same compound, the “Giant foxtail plant response rating” value (giant foxtail; [7]) was 7, the “Giant foxtail plant response rating” value (giant foxtail; [8]) was 7 and the “Redroot pigweed plant response rating” value (pigweed; [1]) was 5. For the same compound, the “Plant response rating, Redroot pigweed” value (pigweed; Preemergence, Rate 62 g/ha) was 7, the “Plant response rating, Redroot pigweed” value (pigweed; Preemergence, Rate 125 g/ha) was 10 and the “Redroot pigweed plant response rating” value (pigweed; [5]) was 10. For the same compound, the “Redroot pigweed plant response rating” value (pigweed; [6]) was 10, the “Redroot pigweed plant response rating” value (pigweed; [7]) was 2 and the “Redroot pigweed plant response rating” value (pigweed; [8]) was 2. For the same compound, the “Rape plant response rating” value (rape; [1]) was 0, the “Plant response rating, Rape” value (rape; Preemergence, Rate 62 g/ha) was 0 and the “Plant response rating, Rape” value (rape; Preemergence, Rate 125 g/ha) was 3. The “Rape plant response rating” value (rape; [5]) was 8, the “Rape plant response rating” value (rape; [6]) was 9 and the “Rape plant response rating” value (rape; [7]) was 0. The “Rape plant response rating” value (rape; [8]) was 0, the “Soybean plant response rating” value (soybean; [1]) was 4 and the “Plant response rating, Soybean” value (soybean; Preemergence, Rate 62 g/ha) was 0. The “Plant response rating, Soybean” value (soybean; Preemergence, Rate 125 g/ha) was 0, the “Soybean plant response rating” value (soybean; [5]) was 0 and the “Soybean plant response rating” value (soybean; [6]) was 2. For the same compound, the “Soybean plant response rating” value (soybean; [7]) was 1, the “Soybean plant response rating” value (soybean; [8]) was 2 and the “Sugarbeets plant response rating” value (sugar beet; [1]) was 0. For the same compound, the “Plant response rating, Sugarbeets” value (sugar beet; Preemergence, Rate 62 g/ha) was 0, the “Plant response rating, Sugarbeets” value (sugar beet; Preemergence, Rate 125 g/ha) was 1 and the “Sugarbeets plant response rating” value (sugar beet; [5]) was 3. The “Sugarbeets plant response rating” value (sugar beet; [6]) was 6, the “Sugarbeets plant response rating” value (sugar beet; [7]) was 0 and the “Sugarbeets plant response rating” value (sugar beet; [8]) was 0. For the same compound, the “Velvetleaf plant response rating” value (velvetleaf; [1]) was 3, the “Plant response rating, Velvetleaf” value (velvetleaf; Preemergence, Rate 62 g/ha) was 2 and the “Plant response rating, Velvetleaf” value (velvetleaf; Preemergence, Rate 125 g/ha) was 4. For the same compound, the “Velvetleaf plant response rating” value (velvetleaf; [5]) was 5, the “Velvetleaf plant response rating” value (velvetleaf; [6]) was 6 and the “Velvetleaf plant response rating” value (velvetleaf; [7]) was 0. The “Velvetleaf plant response rating” value (velvetleaf; [8]) was 0, the “Wheat plant response rating” value (wheat; [1]) was 0 and the “Plant response rating, Wheat” value (wheat; Preemergence, Rate 62 g/ha) was 0. The “Plant response rating, Wheat” value (wheat; Preemergence, Rate 125 g/ha) was 0, the “Wheat plant response rating” value (wheat; [5]) was 0 and the “Wheat plant response rating” value (wheat; [6]) was 2. The “Wheat plant response rating” value (wheat; [7]) was 0, the “Wheat plant response rating” value (wheat; [8]) was 0 and the “Wild oats plant response rating” value (wild oat; [1]) was 0. For the same compound, the “Plant response rating, Wild oats” value (wild oat; Preemergence, Rate 62 g/ha) was 0, the “Plant response rating, Wild oats” value (wild oat; Preemergence, Rate 125 g/ha) was 3 and the “Wild oats plant response rating” value (wild oat; [5]) was 9. The “Wild oats plant response rating” value (wild oat; [6]) was 10, the “Wild oats plant response rating” value (wild oat; [7]) was 0 and the “Wild oats plant response rating” value (wild oat; [8]) was 0. For the same compound, the “Plant response rating, Rice (0 to 10 scale, 0 is no effect, 10 is complete control)” value (rice; [9]) was 0, the “Rice plant response rating (0 to 10 scale, 0 is no effect, 10 is complete control)” value (rice; [10]) was 0 and the “Rice plant response rating” value (rice; [11]) was 0. For the same compound, the “Rice plant response rating” value (rice; [12]) was 0, the “Plant response rating, S. Flatsedge (0 to 10 scale, 0 is no effect, 10 is complete control)” value (smallflower flatsedge; [9]) was 0 and the “S. Flatsedge plant response rating (0 to 10 scale, 0 is no effect, 10 is complete control)” value (smallflower flatsedge; [10]) was 0. For the same compound, the “S. Flatsedge plant response rating” value (smallflower flatsedge; [11]) was 0, the “S. Flatsedge plant response rating” value (smallflower flatsedge; [12]) was 0 and the “Plant response rating, Ducksalad (0 to 10 scale, 0 is no effect, 10 is complete control)” value (duck salad; [9]) was 0. The “Ducksalad plant response rating (0 to 10 scale, 0 is no effect, 10 is complete control)” value (duck salad; [10]) was 0, the “Ducksalad plant response rating” value (duck salad; [11]) was 0 and the “Ducksalad plant response rating” value (duck salad; [12]) was 0.

— patent US6737383B1, “Herbicidal oxadiazolidines” (priority 1999, dated 2004)
